What was measured:
[1] = tested on: human OA cartilage explants; assay: PGE2 levels in culture supernatant of cartilage explants; format: cell-based; conditions: n = 5 donors, 24 h, relative to control (Figure 6D)
Protocol: Figure 6 Peptide p[63−82] activity on OA knee joint tissues Human OA knee joint tissues were cultured for 24 h in the presence of BMP7, peptide p[63−82], or the scrambled version of peptide p[63−82] and compared to control conditions. (A) Cartilage tissues (n = 7 individual donors) were exposed to shown conditions and analyzed for COL2A1, COL10A1, and COX-2 mRNA expression by quantitative real-time PCR (normalized for 28S rRNA expression and relative to control conditions). (B) GAG release in medium from cartilage tissues (n = 5 individual donors) was determined, and data were calculated relative to the control condition. (C) PGE2 levels in culture supernatant from synovium (n = 5 donors). (D) PGE2 levels in culture supernatant from cartilage tissues from (B) (n = 5 donors). (E) PGE2 levels in culture supernatant from IPFP (n = 5 donors). (F) PGE2 levels in culture supernatant from the meniscus. Synovium, IPFP, and meniscus tissues were from the same 5 donors as the cartilage tissues in (B) and (C). PGE2 levels in conditions were calculated relative to controls for each donor. In graphs, error bars represent mean ± SEM; data are presented relative to the control condition for each time point. Statistical differences (unpaired two-tailed Student’s t test) were calculated to control condition: ∗p < 0.05, ∗∗p < 0.01, and ∗∗∗p < 0.001. […]

[2] = tested on: OA-HACs; assay: Duration of chondrocyte phenotype modulation, single versus multiple peptide addition, 10-day follow-up; format: cell-based, human; conditions: 100 nM; for COL10A1 gene expression, continuous exposure / inhibition of MMP13 and COX-2 expression, continuous exposure / COL2A1 mRNA expression, continuous exposure / inhibition of COL10A1, MMP13, and COX-2 gene expression after single dose, up to and including day / expression of COL10A1, MMP13, and COX-2 at day 10, single dose / timing of action on COL2A1 after single dose: OA-HAC pool (n = 3 donors); for COL10A1 gene expression, continuous exposure / inhibition of MMP13 and COX-2 expression, continuous exposure: multiple addition; for COL10A1 gene expression, continuous exposure: 10 days (Figure 4B); for inhibition of MMP13 and COX-2 expression, continuous exposure: 10 days (Figures 4C, 4D); for COL2A1 mRNA expression, continuous exposure: peptide added every other day (multiple), 10 days (Figure 4A); for inhibition of COL10A1, MMP13, and COX-2 gene expression after single dose, up to and including day: single dose at start, sampled every 2 days; for timing of action on COL2A1 after single dose: compared with timing for COL10A1, MMP13, COX-2; for detectable changes in chondrocyte gene expression phenotype after a single exposure: OA-HAC pool
Protocol: The duration of chondrocyte phenotypic change induced by candidate peptides p[63−82] and p[113−132] was determined by exposing OA-HACs to a single dose of peptide or continuously keeping the peptides present during OA-HAC culture. In both cases, the phenotype of the OA-HACs was analyzed every other day during a 10-day follow-up. Non-OA-HACs were used as a reference for chondrocyte phenotype status.
Figure 4 Duration of chondrocyte phenotype modulation by BMP7-derived peptides A pool of OA-HACs (n = 3 donors) was cultured in the presence or absence of 100 nM peptides p[63−82] or p[113−132] and compared to a pool of human articular chondrocytes from a non-OA source. The medium was changed every 2 days. Peptides were added at the start of the experiment and subsequently at every medium change (multiple) or only at the start of the experiment and not during every subsequent medium change (single). At days 0, 2, 4, 6, 8, and 10 in culture, samples were harvested and analyzed for the expression of the indicated mRNAs by quantitative real-time PCR (normalized for 28S rRNA expression) (A) COL2A1 mRNA expression. (B) COL10A1 mRNA expression. (C) MMP13 mRNA expression. (D) COX-2 mRNA expression. In graphs, error bars represent mean ± SEM; data are presented relative to the “control OA” condition of each time point. Statistical differences were calculated to control conditions. Error bars represent mean ± SEM, and statistical significance for peptide conditions or control non-OA versus control OA condition as determined by unpaired two-tailed Student’s t test is represented as ∗p < 0.05, ∗∗p < 0.01, and ∗∗∗p < 0.001.
For the peptide-screening and alanine-scanning experiments, cDNA was prepared using the Cells-to-Ct kit (Invitrogen) according to the manufacturer’s protocol. For the other experiments, cells or homogenized tissues (Mikro-Dismembrator; Braun Biotech International) were lysed in TRIzol (Life Technologies) and RNA isolation and cDNA synthesis were performed as described earlier.[27]^,[57] Quantitative real-time PCR was performed using Takyon qPCR Master Mix plus blue for SYBR Green (Eurogentec). A CFX96 Real-Time PCR Detection System (Bio-Rad) was used for amplification: initial denaturation 95°C for 10 min, followed by 40 cycles of amplification (denaturing 15 s at 95°C and annealing 1 min at 60°C). Data were analyzed using the standard curve method, mRNA expression was normalized to a reference gene (28S rRNA), and gene expression was calculated as fold change as compared to control conditions.

Substance	PGE2 levels from cartilage explants [1]	COL10A1 gene expression, continuous exposure [2]	inhibition of MMP13 and COX-2 expression, continuous exposure [2]	COL2A1 mRNA expression, continuous exposure [2]	inhibition of COL10A1, MMP13, and COX-2 gene expression after single dose, up to and including day [2]	expression of COL10A1, MMP13, and COX-2 at day 10, single dose [2]	timing of action on COL2A1 after single dose [2]	detectable changes in chondrocyte gene expression phenotype after a single exposure [2]
BMP7: full-length recombinant bone morphogenetic protein 7 (R&D Systems), used at 1 nM	reduced							
H-SVLYFDDSSNVILKKYRNMV-OH [p[113−132]]		steadily decreased over time	continuously observed during the treatment period	overtime increasing	up to 8 day	indistinguishable from non-treated OA HACs	similar	up to 8 days
H-AAYYSEGESAFPLNSYMNAT-OH [p[63−82]]	reduced	steadily decreased over time	continuously observed during the treatment period	overtime increasing	up to 8 day	indistinguishable from non-treated OA HACs	not detectable anymore from day 8 onward	up to 8 days

Reference: PMC8022858, “Discovery of bone morphogenetic protein 7-derived peptide sequences that attenuate the human osteoarthritic chondrocyte phenotype” (Molecular Therapy. Methods & Clinical Development, 2021)
